Test results from patent publication US6248694A, “Plant growth regulator compositions” (BASF Aktiengesellschaft, priority 1999, dated 2001).

Columns and labels:
[1] = pH in water 1 wt. % concentration; type: physicochemical; details: 1 wt. % in water
From the text: 5) pH in water 1 wt. % concentration 6.78

[2] = Hygroscopicity (relative water uptake at 50 and 60% relative humidity in air); type: physicochemical
Method: 4) Hygroscopicity of compound 1.1 in comparison to mepiquat chloride:
Both compounds were dried to a constant dry weight in vacuum at 40° C. 48 hours. Afterwards approx. 1 g samples (two series of 3 samples each and average values) were stored under 50 and 60% relative humidity in air for 2 and/or 4 weeks. The following results in relative water uptake (wt. % w/w) were found: […]

[3] = Hygroscopic nature, observation in words; type: physicochemical; details: solid dried at 50° C. under reduced pressure
[4] = Corrosion trial, test series 2 (DIN No. 52168, modified steel plates, 14 days)
Method: (§1) Comparison of (A) mepiquat chloride, with (B) a mixture of mepiquat chloride with disodium octaborate tetrahydrate (Solubor®), and (C) mepiquat pentaborate (compound 1.9) of example 13.
(§2) The tests of this example were conducted according to the method of DIN (Deutsche Industrie Norm) No. 52168, part 1 of November 1981, but using modified steel plates.
(§3) The corrosion tests were conducted on the three different formulations prepared as set forth below. Each formulation was tested with the different steel types set forth below.
(§4) The first formulation, referred to as "mepiquat chloride" in the tables below, was an 8.33% mepiquat chloride aqueous solution (by weight) prepared by diluting a 600 g/l mepiquat chloride preconcentrate. The second formulation, referred to as "mepiquat chloride plus borate salt" in the tables below, was prepared by adding 15 wt. % disodium octaborate tetrahydrate to the same 8.33% aqueous solution of mepiquat chloride as was used in the first formulation.
(§5) The third formulation, referred to as "mepiquat pentaborate"--in the tables below, was prepared from compound 1.9, example 13 by diluting with water to form a 12% mepiquat pentaborate (wt. %) aqueous solution.
(§6) All three abovementioned formulations contained equal amounts of the mepiquat cation.
(§7) One-half liter quantities of each formulation were placed in polyethylene plastic containers (10 cm×10 cm×12 cm (height)). Into each of the containers, two series of steel plate types--12×5 cm^2 (0.2 cm thickness) were inserted.
(§8) In modification of the mentioned DIN, the steel plates were prepared with an additional oxyacetylene torched area, approximately 5 to 7 mm large, horizontally in the middle of the steel plates.
(§9) The torched areas were placed below the solution's surface. (The aim of this modification of the test was to simulate a more serious corrosion and endangering situation.)
(§10) The position of the plates were such that approximately 1/3 of the plates were in air contact. After 14 days the steel plates were examined, washed and cleaned, dried and weighed according to the DIN method above.

[5] = Corrosion trial, test series 1 (DIN No. 52168, modified steel plates, 14 days)
Method: as §1, §2, §3, §4, §5, §6, §7, §8, §9, §10

[6] = 50% relative humidity in air, 2 weeks
[7] = 60% relative humidity in air, 2 weeks
[8] = 4 weeks at 50% relative humidity in air
[9] = 4 weeks at 60% relative humidity in air

Compound: C[N+]1(C)CCCCC1.O.O.O.O.O.O.OB(O)O.OB(O)O.OB(O)O.OB(O)O.OB(O)O.OB(O)O.OB(O)O.OB(O)O.OB(O)O.[Na+].[O-]B([O-])O [Compound 1.1, N,N-Dimethylpiperidinium sodium decaborate hexahydrate]
- pH in water 1 wt. % concentration [1]: 6.78
- Relative water uptake [2, 6]: 4.1 wt. % w/w
- Relative water uptake [2, 7]: 7.8 wt. % w/w

Compound: C[N+]1(C)CCCCC1 [N,N-dimethylpiperidiniumbicarbonate]
- Hygroscopic nature of isolated product [3]: extremely hygroscopic

Compound: C[N+]1(C)CCCCC1.[Cl-] [mepiquat chloride, N,N-dimethylpiperidinium chloride, reference compound]
- pH values, end ([4]; ST 13, end): 8.34
- pH values, initial ([4]; ST 13, initial): 7.67
- appearance of the resulting formulations ([4]; ST 13, test series 2): yellow to orange solution, cloudy, sedimentations
- pH values, end ([5]; ST 37, end): 7.96
- pH values, initial ([5]; ST 37, initial): 7.67
- appearance of the resulting formulations ([5]; ST 37, test series 1): yellow to orange solution, cloudy, sedimentations
- Relative water uptake [2, 6]: 52 wt. % w/w
- Relative water uptake ([2]; 50% relative humidity in air, 4 weeks): 58 wt. % w/w
- Relative water uptake [2, 7]: 71 wt. % w/w
- Relative water uptake ([2]; 60% relative humidity in air, 4 weeks): 78 wt. % w/w

Compound: [Dimethylpiperidinium]2^2+ [B12 Na4 O21 ]^2-×20 H2 O [Compound 1.3]
- Hygroscopicity: water uptake [2, 8]: 13.6 wt. %
- Hygroscopicity: water uptake [2, 9]: 28.8 wt. %

Compound: [Dimethylpiperidinium]2^2+ [B18 Na2 O29 ]^2-×8 H2 O [Compound 1.2]
- pH in water 1 wt. % concentration [1]: 7.4
- Hygroscopicity: water uptake [2, 8]: 5.2 wt. %
- Hygroscopicity: water uptake [2, 9]: 7.0 wt. %

Compound: [Dimethylpiperidinium]^+ [B6.4 Na0.3 O10.3 ]^-×4 H2 O [Compound 1.7]
- Hygroscopicity: water uptake [2, 8]: 1.9 wt. %
- Hygroscopicity: water uptake [2, 9]: 4.1 wt. %

Compound: [Dimethylpiperidinium]^+ [B8 (NH4)0.3 O12.7 ]^-×4 H2 O [Compound 1.5]
- pH in water 1 wt. % concentration [1]: 6.8
- Hygroscopicity: water uptake [2, 8]: 0.4 wt. %
- Hygroscopicity: water uptake [2, 9]: 0.6 wt. %

Compound: [Dimethylpiperidinium]^+ [B9 Na0.9 O14.5 ]^-×6H2 O [Compound 1.6]
- pH in water 1 wt. % concentration [1]: 7.1
- Hygroscopicity: water uptake [2, 8]: 2.7 wt. %
- Hygroscopicity: water uptake [2, 9]: 9.0 wt. %
